These results are taken from patent US4681969A, “Process for the preparation of an enantiomeric pair of isomers of cyfluthrin” (Imperial Chemical Industries PLC, priority 1984, dated 1987).

In brackets after ≈: the same amount, converted by molar mass. Where two headings read alike, the source gives them in different places.

Assay [1] relates to Heliothis virescens (tobacco budworm). Briefly: LC50 against larval tobacco budworm. The class given is in vivo. Conditions: for LC50: read-out: LC50 (concentration required to kill 50% of a population). The text has this: The isomers were obtained by the h.p.l.c. technique shown in the next Example.
The nature of assay [2]: relative insecticidal efficacy (general statement). The class given is in vivo. As to conditions: Starting Material vs previously described mixture of cis and trans isomers; Racemate vs Starting Material.

With `CC1(C)C(C=C(Cl)Cl)C1C(=O)OC(C#N)c1ccc(F)c(Oc2ccccc2)c1` (racemic) [Cyfluthrin, (R,S)-α-cyano-4-fluoro-3-phenoxybenzyl (1R,S-cis)/(1R,S-trans)-3-(2,2-dichlorovinyl)-2,2-dimethylcyclopropane carboxylate], the LC50 in assay [1] (larval Heliothis virescens) is 7.1 µg/mL (≈ 16.3 µM).

For the compound `CC1(C)[C@H](C(=O)O[C@@H](C#N)c2ccc(F)c(Oc3ccccc3)c2)[C@@H]1C=C(Cl)Cl` (relative stereo) [1S,cis-S/1R,cis-R, (R)-α-cyano-4-fluoro-3-phenoxybenzyl (1R,cis)-3-(2,2-dichlorovinyl)-2,2-dimethylcyclopropane carboxylate and (S)-α-cyano-4-fluoro-3-phenoxybenzyl (1S,cis)-3-(2,2-dichlorovinyl)-2,2-dimethylcyclopropane carboxylate], the LC50 in assay [1] (Heliothis virescens) is 23.4 µg/mL (≈ 53.9 µM).

On to `CC1(C)[C@H](C(=O)O[C@H](C#N)c2ccc(F)c(Oc3ccccc3)c2)[C@@H]1C=C(Cl)Cl` (relative stereo) [1R,cis-S/1S,cis-R, (S)-α-cyano-4-fluoro-3-phenoxybenzyl (1R,cis)-3-(2,2-dichlorovinyl)-2,2-dimethylcyclopropanecarboxylate and its enantiomer, (R)-α-cyano-4-fluoro-3-phenoxybenzyl (1S,cis)-3-(2,2-dichlorovinyl)-2,2-dimethylcyclopropane carboxylate], for which the relative insecticidal efficacy entry in assay [2] was “even more effective insecticidal product”. Also, the “efficacy relative to cyfluthrin” value in assay [1] (larval Heliothis virescens, from LC50 values) is “about four times more efficacious than cyfluthrin”. Moreover, the LC50 in assay [1] (larval Heliothis virescens) stood at 1.8 µg/mL (≈ 4.14 µM).

Consider `CC1(C)[C@H](C=C(Cl)Cl)[C@H]1C(=O)O[C@H](C#N)c1ccc(F)c(Oc2ccccc2)c1` (relative stereo) [1R,trans-S/1S,trans-R], for which the LC50 in assay [1] (larval Heliothis virescens) is 3.6 µg/mL (≈ 8.29 µM).

As for `CC1(C)[C@H](C(=O)OC(C#N)c2ccc(F)c(Oc3ccccc3)c2)[C@@H]1C=C(Cl)Cl` (mixture of isomers) [The Starting Material, (RS) -α-cyano-4-fluoro-3-phenoxybenzyl (1RS,cis)-3-(2,2-dichlorovinyl)-2,2-dimethylcyclopropane carboxylate], in assay [2], the relative insecticidal efficacy entry was “potent insecticide of greater relative efficacy than the previously described mixture of cis and trans isomers”.
